In the test the test system is HIV-1 (NL4-3 strain). Description: Assay for inhibition of HIV replication (VIKING) in infected MT4-GFP cells. Particulars: infected cells at 48 h / 24 h. The format is cell-based. The procedure:
MT4-GFP cells (250,000 cells/ml) were bulk-infected with HIV-1 (NL4-3 strain) at low multiplicity of infection (MOI) in RPMI+10% FBS for 24 hours. […] Test compounds were serial-diluted in DMSO on ECHO. The infected MT4-GFP cells were added to a 384-well poly-D-lysine coated black plate with clear bottom in which the diluted test compounds were placed. The cells were seeded at 8,000 cells per well and the final DMSO concentration was 0.4%. The infected cells (Green GFP cells) were quantified at both 24 and 48 hours post incubation using Acumen eX3. Viral reproductive ratio (R0) was determined using the number of infected cells at 48 hours divided by the number of infected cells at 24 hours. Percent viral growth inhibition was calculated by [1−(R−Rtripledrug)/(RDMSO−Rtripledrug)]*100.

Setting [1] is: Human immunodeficiency virus 1, NL43, MT4-GFP cells infected with HIV-1 NL4-3, 0% NHS (normal human serum), read-out: VIKING IP50 (nM) with 0% NHS.
Setting [2] is: MT4-GFP cells infected with HIV-1 NL4-3, 100% NHS (normal human serum), read-out: VIKING IP50 (nM) with 100% NHS.
Setting [3] is: MT4-GFP cells infected with HIV-1 NL4-3, 0% NHS (normal human serum), read-out: VIKING IP50 (nM) with 0% NHS.
Setting [4] is: Human immunodeficiency virus 1, NL43, MT4-GFP cells infected with HIV-1 NL4-3, 100% NHS (normal human serum), read-out: VIKING IP50 (nM) with 100% NHS.

Read-outs that look alike come from different tables or passages of the source.

For `COCCN1CC2(CCCOC2)n2cc(C(=O)NCc3ccc(F)cc3F)c(=O)c(O)c2C1=O` (single isomer, unassigned) [Compound 8], the IC50 under setting [1] worked out at 2 nM and the IC50 under setting [2] stood at 260 nM.
`CCN1C(=O)c2c(O)c(=O)c(C(=O)NCc3ccc(F)cc3F)cn2C2(CCOC2)C1OC` (single isomer, unassigned) [Compound 35]: the IC50 came to 1 nM under setting [3] and 88 nM under setting [2].
For `COCCN1CC2(CCOC2)n2cc(C(=O)NCc3cccc(Cl)c3F)c(=O)c(O)c2C1=O` (centres unmarked) [Compound 29], the IC50 under setting [1] came to 1 nM and the IC50 under setting [2] came to 1140 nM.
`CN1CC2(COC2)n2cc(C(=O)NCc3ccc(F)cc3F)c(=O)c(O)c2C1=O` [Compound 4]: the IC50 worked out at 2 nM under setting [1] and 334 nM under setting [4].
For `COCCN1CC2(CCOC2)n2cc(C(=O)NCc3ccc(F)c(Cl)c3F)c(=O)c(O)c2C1=O` (centres unmarked) [Compound 25], the IC50 was found to be 1 nM under setting [1] and 1730 nM under setting [4].
For `COCCN1CC2(CCOC2)n2cc(C(=O)NCc3ccc(F)c(Cl)c3F)c(=O)c(O)c2C1=O` (centres unmarked) [Compound 26], the IC50 stood at 1 nM under setting [3] and 1140 nM under setting [2].
For the molecule `CN1CC2(CCN(S(C)(=O)=O)C2)n2cc(C(=O)NCc3ccc(F)cc3F)c(=O)c(O)c2C1=O` (single isomer, unassigned) [Compound 47], the IC50 runs as follows: under setting [1], 6 nM; under setting [4], 78 nM.
`COCCN1CC2(CCOC2)n2cc(C(=O)NCc3ccc(F)c(Cl)c3)c(=O)c(O)c2C1=O` (centres unmarked) [Compound 28]: the IC50 by setting is: under setting [3], 2 nM; under setting [2], 2770 nM.
Take `CC(C)OC(=O)OCOP(=O)(CCN1C[C@]2(CCOC2)n2cc(C(=O)NCc3ccc(F)cc3F)c(=O)c(O)c2C1=O)OCOC(=O)OC(C)C` (single isomer, unassigned) [Compound 58]: the IC50 runs as follows: under setting [1], 7 nM; under setting [4], 530 nM.
In the same order, the values of `CN1CC2(CCOC2)n2cc(C(=O)NCc3ccc(F)cc3F)c(=O)c(O)c2C1=O` (centres unmarked) [Compound 14] are 3 nM and 209 nM.
Take `CCN1CC2(CCOC2)n2cc(C(=O)NCc3ccc(F)cc3F)c(=O)c(O)c2C1=O` (centres unmarked) [Compound 16]: the IC50 reads like this: under setting [1], 2 nM; under setting [4], 4530 nM.
As for `CN(C)N1CC2(CCOCC2)n2cc(C(=O)NCc3ccc(F)cc3F)c(=O)c(O)c2C1=O` [Compound 2], the IC50 under setting [1] turned out to be 19 nM and the IC50 under setting [4] amounted to 1510 nM.
Taken in the same sequence, the figures for `CN1CC2(CCOCC2)n2cc(C(=O)NCc3ccc(F)cc3F)c(=O)c(O)c2C1=O` [Compound 7] were 6 nM and 113 nM.
In the same order, the values of `CN(C)N1CC2(COC2)n2cc(C(=O)NCc3ccc(F)cc3F)c(=O)c(O)c2C1=O` [Compound 1] are 4 nM and 1280 nM.
Taken in the same sequence, the figures for `COCCN1CC2(CCOC2)n2cc(C(=O)NCc3ccc(F)c(Cl)c3)c(=O)c(O)c2C1=O` (centres unmarked) [Compound 27] were 3 nM and 3660 nM.
On to `COCN1CC2(CCOC2)n2cc(C(=O)NCc3ccc(F)cc3F)c(=O)c(O)c2C1=O` (centres unmarked) [Compound 19], for which the IC50 under setting [3] came to 2 nM and the IC50 under setting [2] amounted to 3420 nM.
In the same order, the values of `COCCN1CC2(CCOC2)n2cc(C(=O)NCc3ccc(F)cc3F)c(=O)c(O)c2C1=O` (centres unmarked) [Compound 21] are 3 nM and 129 nM.
Taken in the same sequence, the figures for `COCCN1CC2(CCOC2)n2cc(-c3nnc(Cc4ccc(F)cc4F)s3)c(=O)c(O)c2C1=O` (centres unmarked) [Compound 40] were 4 nM and 691 nM.
In the case of `COC1N(N(C)C)C(=O)c2c(O)c(=O)c(C(=O)NCc3ccc(F)cc3F)cn2C12COC2` (centres unmarked) [Compound 38], the IC50 reads like this: under setting [1], 7 nM; under setting [4], 235 nM.
On to `COCCN1CC2(CCOC2)n2cc(C(=O)NCc3ccc(F)cc3F)c(=O)c(O)c2C1=O` (centres unmarked) [Compound 20], for which the IC50 came to 2 nM under setting [1] and 337 nM under setting [2].
On to `COCN1CC2(CCOC2)n2cc(C(=O)NCc3ccc(F)cc3F)c(=O)c(O)c2C1=O` (centres unmarked) [Compound 18], for which the IC50 by setting is: under setting [1], 3 nM; under setting [2], more than 8400 nM.
For the molecule `CCOP(=O)(CCN1CC2(CCOC2)n2cc(C(=O)NCc3ccc(F)cc3F)c(=O)c(O)c2C1=O)OCC` (centres unmarked) [Compound 31], the IC50 was determined as 17 nM under setting [1] and 232 nM under setting [4].
Consider `CCN1CC2(COC2)n2cc(C(=O)NCc3ccc(F)cc3F)c(=O)c(O)c2C1=O` [Compound 5], for which the IC50 runs as follows: under setting [1], 4 nM; under setting [4], more than 8400 nM.
Taken in the same sequence, the figures for `CN1CCC2(C1)CN(C)C(=O)c1c(O)c(=O)c(C(=O)NCc3ccc(F)cc3F)cn12` (single isomer, unassigned) [Compound 49] were 2 nM and 90 nM.
For `CCOCCN1CC2(CCOC2)n2cc(C(=O)NCc3ccc(F)cc3F)c(=O)c(O)c2C1=O` (centres unmarked) [Compound 22], the IC50 was determined as 2 nM under setting [1] and 40 nM under setting [4].
Take `CCN1CC2(CCOC2)n2cc(C(=O)NCc3ccc(F)cc3F)c(=O)c(O)c2C1=O` (centres unmarked) [Compound 17]: the IC50 runs as follows: under setting [3], 2 nM; under setting [2], more than 8400 nM.
Taken in the same sequence, the figures for `COCCN1CC2(CCOC2)n2cc(C(=O)NCc3cccc(Cl)c3F)c(=O)c(O)c2C1=O` (centres unmarked) [Compound 30] were 1 nM and 417 nM.
In the case of `COCCCN1CC2(CCOC2)n2cc(C(=O)NCc3ccc(F)cc3F)c(=O)c(O)c2C1=O` (single isomer, unassigned) [Compound 12], the IC50 under setting [4] was determined as 47 nM and the IC50 under setting [3] was determined as 5 nM.
Regarding `CCN1C(=O)c2c(O)c(=O)c(C(=O)NCc3ccc(F)cc3F)cn2C2(CCOC2)C1OC` (single isomer, unassigned) [Compound 37], the IC50 under setting [3] was found to be 3 nM and the IC50 under setting [2] stood at 663 nM.
With `CN1CC2(CCOC2)n2cc(C(=O)NCc3ccc(F)cc3F)c(=O)c(O)c2C1=O` (centres unmarked) [Compound 15], the IC50 under setting [3] was 4 nM and the IC50 under setting [2] was determined as 108 nM.
For the molecule `CC(C)OC(=O)OCOP(=O)(CCN1C[C@@]2(CCOC2)n2cc(C(=O)NCc3ccc(F)cc3F)c(=O)c(O)c2C1=O)OCOC(=O)OC(C)C` (single isomer, unassigned) [Compound 54], the IC50 runs as follows: under setting [1], 5 nM; under setting [4], 1600 nM.
In the case of `CN1CC2(CCCOC2)n2cc(C(=O)NCc3ccc(F)cc3F)c(=O)c(O)c2C1=O` (centres unmarked) [Compound 10], the IC50 runs as follows: under setting [1], 3 nM; under setting [2], 75 nM.
In the same order, the values of `COCCN1CC2(CCOC2)n2cc(-c3nnc(Cc4ccc(F)cc4F)s3)c(=O)c(O)c2C1=O` (centres unmarked) [Compound 39] are 2 nM and 291 nM.
`CN1CCC2(C1)CN(C)C(=O)c1c(O)c(=O)c(C(=O)NCc3ccc(F)cc3F)cn12` (single isomer, unassigned) [Compound 50]: the IC50 is, setting by setting: under setting [3], 1 nM; under setting [2], 74 nM.
On to `CN1CC2(CCNC2)n2cc(C(=O)NCc3ccc(F)cc3F)c(=O)c(O)c2C1=O` (single isomer, unassigned) [Compound 51], for which the IC50 is 3 nM under setting [3] and 68 nM under setting [2].
For `O=C(NCc1ccc(F)cc1F)c1cn2c(c(O)c1=O)C(=O)N(CCO)CC21CCOC1` (centres unmarked) [Compound 24], the IC50 reads like this: under setting [1], 35 nM; under setting [4], more than 8000 nM.
For `CN1CC2(CCN(S(C)(=O)=O)C2)n2cc(C(=O)NCc3ccc(F)cc3F)c(=O)c(O)c2C1=O` (single isomer, unassigned) [Compound 48], the IC50 under setting [3] was found to be 10 nM and the IC50 under setting [2] stood at 112 nM.

Values taken from patent US10221186B2, “Spirocyclic heterocyclic compounds useful as HIV integrase inhibitors” (priority 2014, dated 2019).
